Work on `CCCc1c(C(=O)C(C)C)c2ccc(C(N)=O)cc2n1C(=O)c1ccccc1Cl` yielded a melting point of 125 to 126 °C.
Work on `CC(=O)NC1(C)CC(C)(C)CC(C)(C)C1` yielded a melting point of 110 °C.
`CCn1nc(C)c2c(Cl)cc(-c3ccccc3)nc21` gave a melting point of 101 to 103 °C.
For `CCCCCCCCCCCCCCCCCC(=O)NCCOCCn1c(CCOC)nc2c(N)nc3ccccc3c21`, the melting point was 80 to 83 °C.
Work on `CCCn1c(=O)c2[nH]c(/C=C/c3cc(OC)c(OC)c(OC)c3)nc2n(CCC)c1=O` yielded a melting point of 162 to 163 °C.
With `O=c1[nH]c(=O)n(C2OC(CBr)C(O)C2F)cc1C=CBr` (stereo not drawn) the melting point was 223 °C.
`CCCCCCCCNC(=O)N1CCC(S(=O)(=O)c2ccc(CCNC[C@H](O)COc3ccc4c(c3)OCO4)cc2)CC1` showed a melting point of 84 to 86 °C.
With `CSc1ccc([N+](=O)[O-])cc1C(=O)OC(C)(C)C` the melting point was 112 to 113 °C.
Work on `CC(N)C(=O)Nc1ccc([N+](=O)[O-])cc1C(=O)c1ccccc1Cl` (single isomer, unassigned; (+)) yielded a melting point of 132 °C.
Compound `COC(=O)c1cc(Cl)c(N)c2c1OCCCN2` has a melting point of 92 to 95 °C.
For `N#Cc1nn(-c2c(Cl)cc(C(F)(F)F)cc2Cl)c(N)c1-c1ccc(F)cc1`, the melting point was 222 to 223 °C.
In the case of `OCc1c(C(F)(F)F)n(Cc2ccccc2)c2ccccc12`, the melting point is reported as 96 °C.
With `CCCn1nc2c(N)nc3ccccc3c2c1CC1(O)CCC1` the melting point was 191 to 193 °C.
For `Cc1nc2cc(C(C)(C)C)c(O)cc2o1`, the melting point was 264 to 266 °C.
Work on `CN1CCC(C(=O)Nc2ccc(CN(C)C3CCOCC3)cc2)=Cc2cc(Br)ccc21` yielded a melting point of 62 to 64 °C.
`Oc1ccc(OCCOc2ccccc2)cc1` showed a melting point of 156 °C.
For `CC(C)c1cccc(C(C)C)c1NC(=O)CN1CCN(CCSc2nc3cccc(S(C)(=O)=O)c3o2)CC1`, the melting point was 125 to 128 °C.
Compound `Cc1ccc2c(c1)Sc1ccc(Cl)cc1CC2N1CCN(C)CC1` (stereo not drawn) has a melting point of 136 to 138 °C.
With `CC1(COc2cc(/C=C/C(=O)O)n(Cc3ccc(C(F)(F)F)cc3Cl)n2)COC1` the melting point was 148 to 149 °C.
`CCCn1c(=O)cc(N)n(Cc2ccccc2)c1=O` gave a melting point of 189 to 192 °C.
In the case of `CCOC(=O)c1snc(C(=O)OC(C)(C)C)c1N`, the melting point is reported as 68 to 69 °C.
For `CCOC(=O)c1ccc(N(C)Cc2ccc3nc(C)[nH]c(=O)c3c2)s1`, the melting point was > 200 °C.
Compound `O=C1COCC(=O)NCCOCCOCCN1` has a melting point of 147 to 148 °C.
Compound `O=S1(=O)N=CN(C2CCCC2)c2ccc(Cl)cc21` has a melting point of 218 to 220 °C.
With `Cc1cc(-c2ccc(-c3ccco3)cc2)cc(S(N)(=O)=O)c1-n1ccc(C(F)(F)F)n1` the melting point was 87 to 89 °C.
`CCC1c2ccc(C#N)n2-c2ccc(F)cc2N1S(=O)(=O)c1ccc(O)cc1` (stereo not drawn) gave a melting point of 169 to 171 °C.
In the case of `CC(C)(C)OC(=O)N1CCC(N2Cc3cc(Br)ccc3C2=O)CC1`, the melting point is reported as 179 to 180 °C.
Work on `OCn1c2ccccc2c2ccccc21` yielded a melting point of 127 to 129 °C.
`O=S(=O)(Nc1c(Cl)cccc1Cl)c1nc2ncccn2n1` showed a melting point of 278 to 280 °C.
Work on `CCCn1ccn(-c2ccc(N3CCN(c4ccc(OC)cc4)CC3)cc2)c1=O` yielded a melting point of 184 °C.
For `CN(C(=O)c1cccc(Cn2cnc3ccccc32)c1)C1CCCCC1`, the melting point was 99 to 101 °C.
Work on `CCCCCCCCCCNC(=O)CCCOCCO` yielded a melting point of 48 °C.
`O=[N+]([O-])c1cccc(NN=C(c2ccc(Cl)cc2)c2ccc(Cl)cc2)c1` showed a melting point of 170 to 172 °C.
`CCc1cn2c(N)c(Cl)cc(C(=O)NCC3CCN(CC(C)(C)OC)CC3)c2n1` showed a melting point of 211 °C.
`CC(=O)OCC[Si](c1ccccc1)(c1ccccc1)c1ccccc1` gave a melting point of 67 to 68 °C.
In the case of `CCOC(=O)c1c(C)cc(C(=O)O)c(NC(C)=O)c1C`, the melting point is reported as 164 °C.
Work on `COC(=O)C1(C)COC(c2nc(-c3ccc(F)cc3)c(-c3ccnc(S(C)(=O)=O)n3)[nH]2)OC1` (stereo not drawn) yielded a melting point of 186 to 187 °C.
In the case of `Nc1nc(O)c2ccnc-2[nH]1`, the melting point is reported as > 300 °C.
`C#CCOc1c(OC)cccc1-c1nc2ncccc2[nH]1` gave a melting point of 238 °C.
Compound `CS(=O)(=O)c1nccc(-n2nnc3ccccc32)n1` has a melting point of 202 °C.
Compound `COc1ncc(Br)c2nc(S(=O)(=O)Nc3c(Cl)cccc3Cl)nn12` has a melting point of 196 to 198 °C.
`CC(C)[C@H](NC(=O)N(C)Cc1ccccn1)C(=O)N[C@@H](Cc1ccccc1)[C@@H](O)C[C@H](Cc1ccccc1)NC(=O)OC(C)(C)C` gave a melting point of 84 to 85 °C.
`CCOC(=O)c1c(C(F)(F)F)nc(C(F)F)c(C=O)c1CC` gave a melting point of 63.5 to 65 °C.
`CN(C)C(=S)SC(C[N+](=O)[O-])c1ccccc1Cl` (stereo not drawn) showed a melting point of 102 to 104 °C.
Compound `Cc1cc(-n2ccnc2)c2cccc(OCc3c(Cl)ccc(S(=O)(=O)N4CCOCC4)c3Cl)c2n1` has a melting point of 148 °C.
Compound `CC(C)(C)[Si](C)(C)OCCCn1ccc2c3c(c(-c4ccccc4Cl)cc21)C(=O)NC3=O` has a melting point of 158 to 160 °C.
With `N#CCOC(=O)C=Cc1cc2ccccc2o1` the melting point was 119 to 121 °C.
For `O=C1Nc2ccccc2SC1CCCO` (stereo not drawn), the melting point was 59 to 60 °C.
For `N#Cc1c(-c2ccc(C(F)(F)F)cc2)n(O)c2ccccc12`, the melting point was 202 to 203 °C.
`COc1ccc(S(=O)(=O)NCC2CCN(C[C@H]3COc4ccc(Cl)cc4O3)CC2)cc1` showed a melting point of 130 to 131 °C.
`Cc1cccc(-c2nc(C(C)C)[nH]c2-c2ccc(F)c(-c3cnn(C(C)C)c3)c2)n1` gave a melting point of 84 to 85 °C.
With `CCCCCCOc1ccccc1C(=O)CCCCC(=O)O` the melting point was 64 to 65 °C.
Work on `COC(OC)C(C)(O)c1cnc(C=O)s1` (stereo not drawn) yielded a melting point of 98 to 99 °C.
Compound `CCCCCCC(O)CNCCO` (stereo not drawn) has a melting point of 45 °C.
Work on `CC1CCC(C(C)C)C(OC2C=CC(=O)O2)C1` (stereo not drawn) yielded a melting point of 70 to 71 °C.
In the case of `CSc1ncc2c(n1)N(c1ccccc1)C(=O)N(c1ccccc1Cl)C2`, the melting point is reported as 79.5 to 82.4 °C.
With `CCCC12CCC(=O)C=C1c1c(cc(OC)c(Cl)c1Cl)O2` (stereo not drawn) the melting point was 172 to 173 °C.
For `c1ccc2nc(CCN3CCc4[nH]c5ccccc5c4C3)ccc2c1`, the melting point was 195 to 197 °C.
For `COC(=O)c1ccc(N(N)C(C)=O)c(N)c1`, the melting point was 175 to 178 °C.
`Nc1nc(N)nc(C2CN(C(c3ccccc3)c3ccccc3)C2)n1` gave a melting point of 126 to 128 °C.
Work on `O=[N+]([O-])c1cccc2[nH]ncc12` yielded a melting point of 172 to 174 °C.
For `Cc1cc2cc(CN3CCCCCC3)cnc2cc1NC(=O)c1ccc(-c2ccccc2)cc1F`, the melting point was 151 °C.
`CC1(C)CCSc2cccc(CO)c21` showed a melting point of 53 °C.
With `CCCCCC(O)CNCCCCCCCCNCC(O)CCCCC` (stereo not drawn) the melting point was 128 to 133 °C.
Compound `COC(=O)CCCC#Cc1cc(Cl)ccc1NS(=O)(=O)c1cc(C)cc(C)c1` has a melting point of 92 to 94 °C.
Compound `OC[C@@](O)(Cc1ccccc1)c1ccccc1` has a melting point of 62 °C.
Work on `COC(=O)C(=O)c1ccc(OCCOc2cc3ccccc3c3ccccc23)cc1` yielded a melting point of 147 to 148 °C.
Work on `CCCCCCOc1ccc(C=[N+]([O-])C(C)(C)C)cc1OCC` yielded a melting point of 35.5 °C.
For `Cc1onc(-c2ccc(C(F)(F)F)cc2)c1CCC(=O)O`, the melting point was 138 to 139 °C.
Compound `CCNC(=O)C1OC(n2cnc3c(NNC(=O)c4ccccc4)ncnc32)C2OC(C)(C)OC12` (stereo not drawn) has a melting point of 116 to 117 °C.
In the case of `O=C1c2cccnc2CCCC1Br` (stereo not drawn), the melting point is reported as 193 to 195 °C.
`CC1=CCC2C(=O)OC(=O)C2C1` (stereo not drawn) showed a melting point of 58 to 63 °C.
With `Cn1c(C(F)(F)F)ccc(-c2c(F)cc(Cl)c3occc23)c1=O` the melting point was 178 to 179 °C.
`O=C(O)C1Oc2ccc(Cl)cc2C(c2ccccc2)(c2ccccc2)O1` (stereo not drawn) gave a melting point of 226 °C.
`O=C1C(C(c2cc(F)ccc2F)S(=O)(=O)c2ccc(Cl)cc2)CCCN1CCCO` (stereo not drawn) showed a melting point of 120 to 121 °C.
In the case of `CCCCC(C(=O)OCC)=C(Nc1cccc(SC)c1)C(=O)OCC`, the melting point is reported as 55 °C.
`Cc1ccccc1COc1cccnc1NC(=S)Nc1ccccc1` showed a melting point of 150 to 151 °C.
Work on `COc1ccc(C(=O)Nc2ccccc2)cc1` yielded a melting point of 156 to 158 °C.
`CC(C)(C)c1cc2c(cc1Br)C=C(C(=O)O)C(C(F)(F)F)O2` (stereo not drawn) gave a melting point of 199 to 200 °C.
`COc1cc(OC)c([C@@H]2CCCC[C@H]2O)c(OC)c1` (racemic) gave a melting point of 125 to 127 °C.
In the case of `CN1C(=O)CNC(c2cccc(Cl)c2)c2cc(C(=O)c3ccc(Cl)cc3)ccc21` (stereo not drawn), the melting point is reported as 177 °C.
In the case of `CCOCc1nc2c(N)nc3cc(N4CCOC4=O)ccc3c2n1CC(C)(C)O`, the melting point is reported as > 250 °C.
`CC(=NOCC=Cc1ccccc1)C(=O)O` showed a melting point of 89 to 91 °C.
Compound `COc1ccc(-c2cc(-c3ccoc3)c(C(=O)NCc3ccc(C(=O)NO)cc3)[nH]2)cc1` has a melting point of 189 to 190 °C.
`CC(=O)OCC1=C(C(=O)O)N2C(=O)C(=NSc3ccc(C)cc3)C2SC1` (stereo not drawn) showed a melting point of 204 to 206 °C.
For `COc1ccc(C2=C(N)c3cc(OC)ccc3C2=O)cc1`, the melting point was 213 °C.
Work on `CS(=O)(=O)N(CC1CCCCC1)CC(O)(Cn1cncn1)c1ccc(Cl)cc1Cl` (stereo not drawn) yielded a melting point of 168 to 169 °C.
`NC(=O)N1C(=O)C(=C(OC(=O)c2ccncc2)c2cccs2)c2cc(F)c(Cl)cc21` gave a melting point of 220 to 221 °C.
In the case of `CC1=C(C(=O)OC(C)C)C(c2cccc([N+](=O)[O-])c2)C(C(=O)C(C)S(=O)(=O)NC(C)C)=C(C)N1` (stereo not drawn), the melting point is reported as 117 to 120 °C.
With `CC(=O)Nc1nc(CCc2ccc(NC3=NCCS3)cc2)cs1` the melting point was 218 to 220 °C.
For `O=Cc1cc2c(cc1O)CCCO2`, the melting point was 97 to 100 °C.
Work on `Cc1cc2n(c1C(=O)c1cccs1)CCC2C(=O)OC(C)C` (stereo not drawn) yielded a melting point of 102 °C.
For `CC(C)N1C(=O)C2Cc3c(nc(C(=O)c4ccccc4)n3Cc3ccccc3)CN2C1=O` (stereo not drawn), the melting point was 215 to 217 °C.
In the case of `CCCCc1cc2c(=O)n3cc(C(=O)O)ccc3nc2s1`, the melting point is reported as 250 to 252 °C.
Work on `CNCc1nc(-c2ncn3c2CN(C)C(=O)c2c(Cl)cccc2-3)no1` yielded a melting point of 192 to 193 °C.
`O=C1N(Cc2ccc(C(F)(F)F)o2)c2c(C(F)(F)F)cccc2C12COc1cc3c(cc12)OCO3` (stereo not drawn) gave a melting point of 95 to 98 °C.
Compound `Nc1cccnc1Nc1ccccc1C(=O)c1ccc(F)cc1` has a melting point of 122 °C.
Compound `O=c1oc2ccccc2c(=O)n1CCCCCCCCCO` has a melting point of 125 to 128 °C.
For `COc1ccc(Oc2cccc(NC(=O)c3ccn4c3CSC4c3cccnc3)c2)cc1` (stereo not drawn), the melting point was 120 °C.
`CCOC(=O)C(C)(C)C(=O)C(Oc1ccc(Cl)cc1)n1ccnc1` (stereo not drawn) showed a melting point of 88 °C.
Compound `COc1ccc(C(Cl)=NS(=O)(=O)C=Cc2ccc(Cl)c(Cl)c2)cc1OC` has a melting point of 120 to 125 °C.
`Nc1c(CCO)cccc1C(O)c1ccccc1` (stereo not drawn) showed a melting point of 101 °C.
With `NC(=O)C1CCc2ccc(C(=O)c3ccccc3)cc21` (stereo not drawn) the melting point was 195 to 197 °C.

Reference: a melting point compilation (Tetko et al.; mined from patent text by program, amines drawn as free bases though some values may be those of a salt)
